In ChEMBL document CHEMBL1150479, “2-(3-hydroxypropoxy)-1,25-dihydroxyvitamin D3 (ED-71), preventive and therapeutic effects on bone mineral loss in ovariectomized rats” (Bioorg Med Chem Lett, 1993):
The source made the active and inactive calls. The calls are words filed in the database; no cut-off is given here.

How the values were obtained:
[1] = molecular target: T1, Vitamin D3 receptor (Rattus norvegicus) (UniProt P13053); assay: In vitro binding potency for vitamin D receptor VDR in 8 ovariectomized rats
T1 sequence (whole entry): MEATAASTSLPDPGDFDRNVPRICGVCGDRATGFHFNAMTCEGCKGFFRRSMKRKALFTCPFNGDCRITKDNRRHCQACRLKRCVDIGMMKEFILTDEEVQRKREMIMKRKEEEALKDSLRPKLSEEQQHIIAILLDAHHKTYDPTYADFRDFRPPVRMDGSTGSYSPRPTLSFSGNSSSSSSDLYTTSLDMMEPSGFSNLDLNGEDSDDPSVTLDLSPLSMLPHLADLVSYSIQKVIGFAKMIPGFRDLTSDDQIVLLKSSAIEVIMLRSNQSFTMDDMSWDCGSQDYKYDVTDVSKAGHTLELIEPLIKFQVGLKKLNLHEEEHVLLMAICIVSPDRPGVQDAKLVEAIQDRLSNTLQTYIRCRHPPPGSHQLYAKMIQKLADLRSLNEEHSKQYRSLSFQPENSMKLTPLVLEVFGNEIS

[2] = test system: Rattus norvegicus; assay: In vivo intestinal calcium absorption was determined against ovariectomized rats; Stimulation; format: functional, organism-based
[3] = test system: Rattus norvegicus; assay: In vivo bone calcium mobilization was determined against ovariectomized rats; Stimulation; format: functional, organism-based
[4] = molecular target: T2, Vitamin D-binding protein (Rattus norvegicus) (UniProt P04276); assay: In vitro binding potency against vitamin D binding protein (DBP) in ovariectomized rats
T2 sequence (whole entry): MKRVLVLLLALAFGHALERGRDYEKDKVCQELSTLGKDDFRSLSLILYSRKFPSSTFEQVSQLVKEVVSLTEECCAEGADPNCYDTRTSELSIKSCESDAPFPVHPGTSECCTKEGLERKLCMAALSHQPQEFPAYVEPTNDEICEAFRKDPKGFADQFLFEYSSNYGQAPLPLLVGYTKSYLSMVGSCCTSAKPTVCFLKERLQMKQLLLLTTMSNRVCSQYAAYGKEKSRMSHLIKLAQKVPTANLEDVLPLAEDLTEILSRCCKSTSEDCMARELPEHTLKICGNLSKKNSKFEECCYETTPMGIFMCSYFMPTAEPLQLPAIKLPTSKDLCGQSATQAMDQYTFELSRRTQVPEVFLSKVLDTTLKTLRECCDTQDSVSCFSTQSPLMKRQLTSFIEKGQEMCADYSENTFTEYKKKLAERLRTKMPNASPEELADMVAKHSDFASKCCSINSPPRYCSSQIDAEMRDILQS

[5] = organism: Rattus norvegicus; assay: In vitro bone resorption against ovariectomized rats; Weak stimulation; format: functional
[6] = organism: Rattus norvegicus; assay: In vitro bone resorption against ovariectomized rats; Stimulation; format: functional
[7] = molecular target: T1, Vitamin D3 receptor (Rattus norvegicus)
Description: In vitro binding potency for vitamin D receptor VDR in ovariectomized rats

SMILES | Binding potency [1] | Absorption [2] | Mobilization [3] | Binding potency [4] | Resorption [5] | Resorption [6] | Binding potency [7]
C=C1/C(=C\C=C2/CCC[C@]3(C)C([C@H](C)CCCC(C)(C)O)CC[C@@H]23)C[C@@H](O)[C@@H](OCCCO)[C@@H]1O (stereo not given in full) | 1 | Active | Active | 2.7 | Partially active | – | –
C=C1/C(=C\C=C2/CCC[C@]3(C)[C@@H]([C@H](C)CCCC(C)(C)O)CC[C@@H]23)C[C@@H](O)C[C@@H]1O | – | Active | Active | 1 | – | Active | 1
